Values after ≈ are worked out from the molar mass of the structure shown.
These compounds were tested on Influenza A virus (assay: Antiviral activity against Influenza A virus (A/Puerto Rico/8/34(H1N1)) infected in MDCK cells assessed as protection against virus-induced cytopathogenicity after 48 hrs by crystal-violet staining-based assay). Settings: A/Puerto Rico/8/1934(H1N1).
Type: functional, organism-based
For `CC(=O)O[C@@H]1c2c3c(cc(O)c2C(=O)O[C@@H]1C)O[C@@]1(C)[C@@H](O)C[C@H]2C(C)(C)C(=O)CC[C@]2(C)[C@@H]1C3`, the IC50 was 58 µM.
Work on `C[C@@H]1Cc2c3c(c(Cl)c(O)c2C(=O)O1)O[C@@]1(C)[C@@H](O)C[C@H]2C(C)(C)C(=O)C=C[C@]2(C)[C@@H]1C3` yielded an IC50 of 74 µM.
For `C[C@@H]1Cc2c3c(cc(O)c2C(=O)O1)O[C@@]1(C)CC[C@H]2C(C)(C)C(=O)CC[C@]2(C)[C@@H]1C3`, the IC50 was 34 µM.
`NC(=O)c1ncn([C@@H]2O[C@H](CO)[C@@H](O)[C@H]2O)n1` [RIBAVIRIN] was tested, and the IC50 was 103 µM.

Each compound was assayed on Staphylococcus aureus (assay: Antimicrobial activity against Staphylococcus aureus by XTT assay). Settings: not given.
Type: functional
Work on `CN[C@@H]1[C@@H](O)[C@@H](O[C@@H]2[C@@H](O)[C@H](O[C@H]3O[C@H](CN)CC[C@H]3N)[C@@H](N)C[C@H]2N)OC[C@]1(C)O.O=S(=O)(O)O` yielded an MIC of 4 µg/mL.
With `C/C(=C\Cc1c(O)cc(O)c2c1C[C@@H](C)OC2=O)CCC(O)[C@@]1(C)CC[C@@H](C(C)(C)O)O1` (stereo partly specified) the MIC was 32 µg/mL (≈ 71.3 µM).
